# Results reported in ChEMBL document CHEMBL4007468, “Curcumolide reduces diabetic retinal vascular leukostasis and leakage partly via inhibition of the p38MAPK/NF-κ B signaling” (Bioorg Med Chem Lett, 2017).
# Active and inactive are the calls of the source. The rule behind the calls is not given here.
# Legend:
# Rattus norvegicus [1] = assay: Downregulation of TNFalpha level in STZ-induced Wistar rat diabetic retinopathy model at 50 ug/eye administered intravitreally measured after 3 days by Western blot method; assay type: functional
# Rattus norvegicus [2] = assay: Inhibition of retinal vascular leakage in STZ-induced Wistar rat diabetic retinopathy model assessed as Evans blue albumin level in retina at 50 ug/eye administered intravitreally measured after 3 days (reference value: 82.94 +/- 11.2 ug/g); assay type: functional
# Rattus norvegicus [3] = assay: Downregulation of ICAM-1 level in STZ-induced Wistar rat diabetic retinopathy model at 50 ug/eye administered intravitreally measured after 3 days by Western blot method; assay type: functional
# Rattus norvegicus [4] = assay: Inhibition of retinal leukostasis in STZ-induced Wistar rat diabetic retinopathy model assessed as adherent leukocyte count per retina at 50 ug/eye administered intravitreally measured after 3 days by FITC-ConA staining based fluorescence microscopic method (reference value: 52 +/- 10); assay type: functional
# Rattus norvegicus [5] = assay: Inhibition of retinal vascular leakage in STZ-induced Wistar rat diabetic retinopathy model assessed as reduction in FITC-dextran leakage at 50 ug/eye administered intravitreally measured after 3 days by fluorescence microscopic method; assay type: functional
# Homo sapiens [6] = species: Homo sapiens; assay: Inhibition of TNFalpha-stimulated NF-kB in HUVEC assessed as reduction in ICAM1 mRNA level up to 20 uM preincubated with cells followed by TNFalpha stimulation measured after 30 mins by RT-PCR method
# Rattus norvegicus [7] = assay: Toxicity in STZ-induced Wistar rat diabetic retinopathy model assessed as TUNEL positive cells in retinal layers at 75 ug/eye administered intravitreally measured after 3 days by fluorescence microscopic method; settings: in vivo, topical_or_ocular, 72 h
# Rattus norvegicus [8] = assay: Toxicity in STZ-induced Wistar rat diabetic retinopathy model assessed as inflammatory cells accumulation in choroid tissues at 75 ug/eye administered intravitreally measured after 3 days by hematoxylin and eosin staining based assay; settings: in vivo, topical_or_ocular, 72 h
# Rattus norvegicus [9] = assay: Toxicity in STZ-induced Wistar rat diabetic retinopathy model assessed as inflammatory cells accumulation in retina at 75 ug/eye administered intravitreally measured after 3 days by hematoxylin and eosin staining based assay; settings: in vivo, topical_or_ocular, 72 h
# [10] = molecular target: MAP kinase p38 (Homo sapiens) (UniProt O15264+Q15759+Q16539+P53778); assay: Inhibition of TNFalpha-stimulated MAPK p38 phosphorylation in HUVEC preincubated with cells followed by TNFalpha stimulation measured after 30 mins by Western blot method
# Rattus norvegicus [11] = assay: Toxicity in STZ-induced Wistar rat diabetic retinopathy model assessed as effect on retina thickness at 75 ug/eye administered intravitreally measured after 3 days by hematoxylin and eosin staining based assay; settings: in vivo, topical_or_ocular, 72 h
# [12] = molecular target: T1, Inhibitor of nuclear factor kappa-B kinase subunit beta (Homo sapiens) (UniProt O14920); assay: Inhibition of IKKbeta in HUVEC assessed as reduction in TNFalpha-stimulated IkBalpha phosphorylation at Ser-32 residue preincubated with cells followed by TNFalpha stimulation measured after 30 mins by Western blot method
# T1 sequence (whole entry): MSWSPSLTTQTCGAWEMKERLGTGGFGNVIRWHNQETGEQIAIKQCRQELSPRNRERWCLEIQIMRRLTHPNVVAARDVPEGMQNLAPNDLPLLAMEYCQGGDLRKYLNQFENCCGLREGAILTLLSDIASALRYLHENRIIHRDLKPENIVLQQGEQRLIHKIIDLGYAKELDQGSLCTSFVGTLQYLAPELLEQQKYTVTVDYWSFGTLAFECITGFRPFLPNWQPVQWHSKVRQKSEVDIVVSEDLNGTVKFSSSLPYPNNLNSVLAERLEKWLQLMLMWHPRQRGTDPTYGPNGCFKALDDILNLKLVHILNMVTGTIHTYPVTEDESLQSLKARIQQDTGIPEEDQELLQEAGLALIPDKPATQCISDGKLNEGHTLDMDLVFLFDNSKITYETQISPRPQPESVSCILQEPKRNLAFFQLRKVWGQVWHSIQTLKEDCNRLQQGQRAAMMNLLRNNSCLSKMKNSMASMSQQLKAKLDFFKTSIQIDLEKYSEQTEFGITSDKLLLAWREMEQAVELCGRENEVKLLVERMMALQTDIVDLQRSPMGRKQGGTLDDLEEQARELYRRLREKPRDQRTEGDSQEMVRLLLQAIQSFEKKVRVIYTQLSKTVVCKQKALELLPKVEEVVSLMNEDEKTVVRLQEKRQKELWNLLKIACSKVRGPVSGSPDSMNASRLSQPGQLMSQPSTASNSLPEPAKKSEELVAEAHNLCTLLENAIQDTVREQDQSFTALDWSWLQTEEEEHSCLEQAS
# HUVEC = assay: Cytotoxicity against HUVEC assessed as reduction in cell viability up to 20 uM after 24 hrs by MTT assay; assay type: cell-based; settings: human
# [13] = molecular target: T1, Inhibitor of nuclear factor kappa-B kinase subunit beta (Homo sapiens); assay: Inhibition of TNFalpha-stimulated IKKbeta phosphorylation at Ser-177 residue in HUVEC preincubated with cells followed by TNFalpha stimulation measured after 30 mins by Western blot method
# [14] = molecular target: Transcription factor p65 (Homo sapiens) (UniProt Q04206); assay: Inhibition of TNFalpha-stimulated NF-kB p65 phosphorylation at Ser-276 residue in HUVEC up to 20 uM preincubated with cells followed by TNFalpha stimulation measured after 30 mins by Western blot method
# Sequence of Transcription factor p65 (Homo sapiens) (Q04206 whole entry): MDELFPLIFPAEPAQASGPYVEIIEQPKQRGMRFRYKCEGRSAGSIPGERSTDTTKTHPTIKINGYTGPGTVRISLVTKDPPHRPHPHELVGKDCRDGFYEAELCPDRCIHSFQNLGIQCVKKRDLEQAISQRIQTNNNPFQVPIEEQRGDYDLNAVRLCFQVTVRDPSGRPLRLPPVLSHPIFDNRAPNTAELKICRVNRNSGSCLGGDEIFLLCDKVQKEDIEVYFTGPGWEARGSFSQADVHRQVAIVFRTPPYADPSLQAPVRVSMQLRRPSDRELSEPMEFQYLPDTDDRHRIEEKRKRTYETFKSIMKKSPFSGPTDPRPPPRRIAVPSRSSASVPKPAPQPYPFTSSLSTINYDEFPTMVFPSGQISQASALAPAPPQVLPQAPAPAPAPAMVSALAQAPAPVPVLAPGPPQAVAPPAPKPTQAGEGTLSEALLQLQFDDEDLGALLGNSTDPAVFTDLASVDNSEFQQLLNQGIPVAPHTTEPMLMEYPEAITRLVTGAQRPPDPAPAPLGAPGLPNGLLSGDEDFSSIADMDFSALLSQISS
# [15] = molecular target: c-Jun N-terminal kinase, JNK (Homo sapiens) (UniProt P45983+P53779+P45984); assay: Inhibition of TNFalpha-stimulated JNK phosphorylation in HUVEC up to 20 uM preincubated with cells followed by TNFalpha stimulation measured after 30 mins by Western blot method
# Rattus norvegicus [16] = assay: Toxicity in STZ-induced Wistar rat diabetic retinopathy model assessed as inflammatory cells accumulation in vitreous at 75 ug/eye administered intravitreally measured after 3 days by hematoxylin and eosin staining based assay; settings: in vivo, topical_or_ocular, 72 h
# [17] = molecular target: Transcription factor p65 (Homo sapiens) (UniProt Q04206); assay: Inhibition of TNFalpha-stimulated NF-kB p65 phosphorylation at Ser-536 residue in HUVEC up to 20 uM preincubated with cells followed by TNFalpha stimulation measured after 30 mins by Western blot method
# Homo sapiens [18] = species: Homo sapiens; assay: Inhibition of TNFalpha-stimulated NF-kB in HUVEC assessed as reduction in TNFalpha mRNA level up to 20 uM preincubated with cells followed by TNFalpha stimulation measured after 30 mins by RT-PCR method
# [19] = molecular target: Transcription factor p65 (Homo sapiens) (UniProt Q04206); assay: Inhibition of TNFalpha-stimulated NF-kB p65 nuclear translocation in HUVEC up to 20 uM preincubated with cells followed by TNFalpha stimulation measured after 30 mins by Western blot method
Compound,Activity (Rattus norvegicus [1]),Activity (Rattus norvegicus [2]) [µg/g],Activity (Rattus norvegicus [3]),Activity (Rattus norvegicus [4]),inhibition (Rattus norvegicus [5]),inhibition (Homo sapiens [6]),Activity (Rattus norvegicus [7]),Activity (Rattus norvegicus [8]),Activity (Rattus norvegicus [9]),inhibition [10],Activity (Rattus norvegicus [11]),inhibition [12],Activity (HUVEC),inhibition [13],inhibition [14],inhibition [15],Activity (Rattus norvegicus [16]),inhibition [17],inhibition (Homo sapiens [18]),inhibition [19]
CC1(C)O[C@@H]2C[C@H]3[C@@H]4CCC5=CC(=O)C=C[C@]5(C)[C@@]4(F)[C@@H](O)C[C@]3(C)[C@]2(C(=O)CO)O1 [TRIAMCINOLONE ACETONIDE],Active,36.33,Active,19,Active,–,–,–,–,–,–,–,–,–,–,–,–,–,–,–
CC1=C[C@]2(C(C)(C)O)C[C@]3(OC2=O)[C@@H](C)CC[C@@H]13,Active,43.53,Active,25,Active,Active,Non-Toxic,Non-Toxic,Non-Toxic,Dose-dependent effect,Non-Toxic,Dose-dependent effect,Non-Toxic,Dose-dependent effect,Active,inactive,Non-Toxic,Active,Active,Active
